Test results from patent US8778958B2, “Synthesis of metabolically stable agents for alcohol and drug abuse” (priority 2008, dated 2014).
Like-named read-outs stand apart in the source and are kept apart here.

Tests used:
Solubility in H2O = details: for Solubility in H2O: salt as labelled; for solubility: water
μ-opioid receptor = biological target: T1, μ-opioid receptor (Homo sapiens, UniProt P35372); assay: biochemical; assay type: binding
T1 construct: expressed in transfected cells; host or cells: CHO cells
T1 sequence (P35372 whole entry): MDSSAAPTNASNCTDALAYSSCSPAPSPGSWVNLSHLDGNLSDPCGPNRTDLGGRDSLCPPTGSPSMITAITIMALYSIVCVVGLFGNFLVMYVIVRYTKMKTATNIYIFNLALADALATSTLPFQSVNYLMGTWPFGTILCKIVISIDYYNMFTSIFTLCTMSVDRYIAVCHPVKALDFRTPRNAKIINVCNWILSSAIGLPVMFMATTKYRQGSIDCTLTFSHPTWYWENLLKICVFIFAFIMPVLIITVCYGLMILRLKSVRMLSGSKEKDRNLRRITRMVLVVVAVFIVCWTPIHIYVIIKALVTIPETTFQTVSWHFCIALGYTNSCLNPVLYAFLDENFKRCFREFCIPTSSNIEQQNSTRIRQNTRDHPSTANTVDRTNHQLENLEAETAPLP

δ-opioid receptor = biological target: T2, δ-opioid receptor (Homo sapiens, UniProt P41143); assay: biochemical; assay type: binding; details: Table 1b; for Ki: N-oxides; for Inhibition of agonist binding, δ: concentration not given
T2 construct: expressed in transfected cells; host or cells: CHO cells
T2 sequence (P41143 whole entry): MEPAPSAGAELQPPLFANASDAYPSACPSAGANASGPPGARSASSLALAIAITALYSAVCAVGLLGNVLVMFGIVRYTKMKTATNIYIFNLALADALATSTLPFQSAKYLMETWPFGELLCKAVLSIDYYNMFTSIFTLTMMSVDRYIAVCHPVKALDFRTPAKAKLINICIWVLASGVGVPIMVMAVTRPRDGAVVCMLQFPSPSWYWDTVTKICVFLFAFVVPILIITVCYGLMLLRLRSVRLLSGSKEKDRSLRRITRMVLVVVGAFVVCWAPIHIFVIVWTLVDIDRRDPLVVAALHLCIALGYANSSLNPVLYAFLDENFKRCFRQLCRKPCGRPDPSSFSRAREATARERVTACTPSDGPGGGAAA

κ-opioid receptor = biological target: T3, κ-opioid receptor (Homo sapiens, UniProt P41145); assay: biochemical; assay type: binding; details: read-out: Ki (nM) ± SEM, κ
T3 construct: expressed in transfected cells; host or cells: CHO cells
T3 sequence (P41145 whole entry): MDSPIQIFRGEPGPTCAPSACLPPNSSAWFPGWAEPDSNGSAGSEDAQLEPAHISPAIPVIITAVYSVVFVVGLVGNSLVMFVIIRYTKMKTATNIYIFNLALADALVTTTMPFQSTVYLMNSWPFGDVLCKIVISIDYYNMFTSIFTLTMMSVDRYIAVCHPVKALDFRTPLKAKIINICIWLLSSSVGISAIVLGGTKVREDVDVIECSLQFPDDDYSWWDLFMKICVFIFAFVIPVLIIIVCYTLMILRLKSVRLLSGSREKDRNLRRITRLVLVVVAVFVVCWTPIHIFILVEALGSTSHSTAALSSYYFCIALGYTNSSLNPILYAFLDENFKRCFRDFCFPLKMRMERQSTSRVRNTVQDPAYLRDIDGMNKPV

[1] = Ki (nM) ± SEM, μ, Table 1b, N-oxides

Molecule	Ki (μ-opioid receptor; [1])	Ki (δ-opioid receptor; Ki (nM) ± SEM, δ)	Ki (κ-opioid receptor)	further results
CN(C(=O)c1ccc(I)cc1)[C@@H]1CC[C@@]2(O)[C@H]3Cc4ccc(O)c5c4[C@@]2(CCN3CC2CC2)[C@H]1O5.O=C(O)C(=O)O [15b—Oxalate, 6-β-(4′-Iodo)-N-methylbenzamido-14-hydroxy-17-(cyclopropylmethyl)nordesmorphine oxalate]				Solubility in H2O (Solubility in H2O): 20 mg/mL
Cc1ccc(C(=O)N[C@@H]2CC[C@@]3(O)[C@H]4Cc5ccc(O)c6c5[C@@]3(CCN4CC3CC3)[C@H]2O6)cc1.O=C(O)C(=O)O [Compound 4-oxalate, 6-β-(4′-Methyl)benzamido-14-hydroxy-17-(cyclopropylmethyl) nordesmorphine oxalate]				Solubility in H2O (Solubility in H2O): 2 mg/mL
CC(C)(C)c1ccc(C(=O)N[C@@H]2CC[C@@]3(O)[C@H]4Cc5ccc(O)c6c5[C@@]3(CCN4CC3CC3)[C@H]2O6)cc1.O=C(O)C(=O)O [Compound 8-oxalate, 6-β-(4′-t-Butyl)benzamido-14-hydroxy-17-(cyclopropylmethyl)nordesmorphine-oxalate]				Solubility in H2O (Solubility in H2O): 6 mg/mL
O=C(/C=C/c1ccoc1)N[C@@H]1CC[C@@]2(O)[C@H]3Cc4ccc(O)c5c4[C@@]2(CCN3CC2CC2)[C@H]1O5.O=C(O)C(=O)O (relative stereo) [Compound 19b.Oxalate, 17-Cyclopropylmethyl-3,14β-dihydroxy-4,5α-epoxy-6β-[-trans-3-(3-furyl)acrylamido]morphinan oxalate]				solubility (Solubility in H2O): 24 mg/mL
CN(C(=O)/C=C/c1ccoc1)[C@@H]1CC[C@@]2(O)[C@H]3Cc4ccc(O)c5c4[C@@]2(CCN3CC2CC2)[C@H]1O5.O=C(O)C(=O)O (relative stereo) [Compound 20b-oxalate, 17-Cyclopropylmethyl-3,14β-dihydroxy-4,5α-epoxy-6β-[N-methyl-trans-3-(3-furyl)acrylamido]morphinan oxalate]				solubility (Solubility in H2O): 32 mg/mL
CN(C(=O)c1ccc(Cl)cc1)[C@H]1CC[C@@]2(O)[C@H]3Cc4ccc(O)c5c4[C@@]2(CCN3CC2CC2)[C@H]1O5.O=C(O)C(=O)O [17a—Oxalate, 6-α-(4′-Chloro)-N-methylbenzamido-14-hydroxy-17-(cyclopropylmethyl)nordesmorphine oxalate]				Solubility in H2O (Solubility in H2O): 10 mg/mL
CN(C(=O)c1ccc(Cl)c(Cl)c1)[C@H]1CC[C@@]2(O)[C@H]3Cc4ccc(O)c5c4[C@@]2(CCN3CC2CC2)[C@H]1O5.O=C(O)C(=O)O [18a—Oxalate, 6-α-(3′,4′-Dichloro)-N-methylbenzamido-14-hydroxy-17-(cyclopropylmethyl)nordesmorphine oxalate]				Solubility in H2O (Solubility in H2O): 6.7 mg/mL
CC(C)(C)c1ccc(C(=O)N[C@@H]2CC[C@@]3(O)[C@H]4Cc5ccc(O)c6c5[C@@]3(CC[N+]4([O-])CC3CC3)[C@H]2O6)cc1 (stereo partly drawn) [Compound 23, 17-Cyclopropylmethyl-3,14β-dihydroxy-4,5α-epoxy-6β-[(4′-tert-butyl)benzamido]morphinan-N-oxide]	1.7 ± 0.07 nM	25 ± 2.38 nM	1.9 ± 0.14 nM	
N#Cc1cccc(C(=O)N[C@@H]2CC[C@@]3(O)[C@H]4Cc5ccc(O)c6c5[C@@]3(CC[N+]4([O-])CC3CC3)[C@H]2O6)c1 (stereo partly drawn) [Compound 53, 17-Cyclopropylmethyl-3,14β-dihydroxy-4,5α-epoxy-6β-[(3′ cyano)benzamido]morphinan-N-oxide]	117 ± 7.8 nM		426 ± 21.5 nM	Inhibition of agonist binding, δ (δ-opioid receptor): <50% inh
CN(C(=O)/C=C/c1ccoc1)[C@@H]1CC[C@@]2(O)[C@H]3Cc4ccc(O)c5c4[C@@]2(CC[N+]3([O-])CC2CC2)[C@H]1O5 (relative stereo) [Compound 44, 17-Cyclopropylmethyl-3,14β-dihydroxy-4,5α-epoxy-6β-[N-methyl-trans-3-(3-furyl)acrylamido]morphinan-N-oxide]	65 ± 7.7 nM	2510 ± 231 nM	3.9 ± 0.5 nM	
O=C(NC1CCC2(O)C3Cc4ccc(O)c5c4C2(CC[N+]3([O-])CC2CC2)C1O5)c1ccc(Cl)c(F)c1 (stereo not drawn) [Compound 59, 17-Cyclopropylmethyl-3,14β-dihydroxy-4,5α-epoxy-6β-[(4′-chloro-3′-fluoro)benzamido]morphinan-N-oxide]	14.1 ± 0.5 nM	390 ± 18 nM	2.5 ± 0.09 nM	
O=C(N[C@@H]1CC[C@@]2(O)[C@H]3Cc4ccc(O)c5c4[C@@]2(CC[N+]3([O-])CC2CC2)[C@H]1O5)c1ccc(Cl)cc1 (stereo partly drawn) [Compound 35, 17-Cyclopropylmethyl-3,14β-dihydroxy-4,5α-epoxy-6β-[(4′-chloro)benzamido]morphinan-N-oxide]	4.7 ± 0.12 nM	219 ± 7.97 nM	1.8 ± 0.1 nM	
17-Cyclopropylmethyl-3,14-β-dihydroxy-4,5α-epoxy-6α-N-methyl-(3′,4′-dichloro)morphinan-N-oxide [Compound 51]				Ki (μ-opioid receptor; read-out: Ki (nM) ± SEM, μ): 7.3 ± 0.2 nM; Ki (δ-opioid receptor; read-out: Ki (nM) ± SEM, δ): 120 ± 5 nM; Ki (κ-opioid receptor; Table 1b, N-oxides): 2 ± 0.09 nM
O=C(N[C@@H]1CC[C@@]2(O)[C@H]3Cc4ccc(O)c5c4[C@@]2(CC[N+]3([O-])CC2CC2)[C@H]1O5)c1ccc([N+](=O)[O-])cc1 (stereo partly drawn) [Compound 40, 17-Cyclopropylmethyl-3,14β-dihydroxy-4,5α-epoxy-6β-[(4′-nitro)benzamido]morphinan-N-oxide]	38 ± 6.5 nM	590 ± 590 nM	6.7 ± 0.4 nM	
O=C(Cc1ccccc1)N[C@@H]1CC[C@@]2(O)[C@H]3Cc4ccc(O)c5c4[C@@]2(CC[N+]3([O-])CC2CC2)[C@H]1O5 (stereo partly drawn) [Compound 33, 17-Cyclopropylmethyl-3,14β-dihydroxy-4,5α-epoxy-6β-(phenylacetamido)morphinan-N-oxide]	43 ± 3 nM	1400 ± 40.5 nM	47 ± 4 nM	
Cc1ccc(C(=O)N[C@@H]2CC[C@@]3(O)[C@H]4Cc5ccc(O)c6c5[C@@]3(CC[N+]4(C)[O-])[C@H]2O6)cc1 (stereo partly drawn) [Compound 55, 17-Methyl-3,14β-dihydroxy-4,5α-epoxy-6β-[(4′-methyl)benzamido]morphinan-N-oxide]	244 ± 8.2 nM		1190 ± 134 nM	Inhibition of agonist binding, δ (δ-opioid receptor): <50% inh
O=C(N[C@@H]1CC[C@@]2(O)[C@H]3Cc4ccc(O)c5c4[C@@]2(CC[N+]3([O-])CC2CC2)[C@H]1O5)c1ccc(Br)cc1 (stereo partly drawn) [Compound 63, 17-Cyclopropylmethyl-3,14β-dihydroxy-4,5α-epoxy-6β-[(4′-bromo)benzamido]morphinan-N-oxide]	7 ± 0.1 nM	246 ± 15 nM	6.3 ± 0.6 nM	
CN(C(=O)c1ccc(I)cc1)C1CCC2(O)C3Cc4ccc(O)c5c4C2(CC[N+]3([O-])CC2CC2)C1O5 (stereo not drawn) [Compound 54, 17-Cyclopropylmethyl-3,14-β-dihydroxy-4,5α-epoxy-6β-N-methyl-[(4′-iodo)benzamido]morphinan-N-oxide]	148 ± 9.3 nM	3060 ± 271 nM	117 ± 10 nM	
COc1ccc(CC(=O)N[C@@H]2CC[C@@]3(O)[C@H]4Cc5ccc(O)c6c5[C@@]3(CC[N+]4([O-])CC3CC3)[C@H]2O6)cc1 (stereo partly drawn) [Compound 39, 17-Cyclopropylmethyl-3,14β-dihydroxy-4,5α-epoxy-6β-[(4′-methoxy)phenylacetamido]morphinan N-oxide]	78 ± 20 nM	472 ± 78 nM	10 ± 1 nM	
NC(=NO)c1cccc(C(=O)NC2CCC3(O)C4Cc5ccc(O)c6c5C3(CC[N+]4([O-])CC3CC3)C2O6)c1 (stereo not shown) [Compound 52]	114 ± 3.3 nM	1220 ± 45 nM	26 ± 1.81 nM	
CN(C)c1ccc(C(=O)N[C@@H]2CC[C@@]3(O)[C@H]4Cc5ccc(O)c6c5[C@@]3(CC[N+]4([O-])CC3CC3)[C@H]2O6)cc1 (stereo partly drawn) [Compound 24, 17-Cyclopropylmethyl-3,14β-dihydroxy-4,5α-epoxy-6β-[(4′-dimethylamino)benzamido]morphinan-N-oxide]				Ki (μ-opioid receptor; read-out: Ki (nM) ± SEM, μ): 478 ± 23 nM; Ki (δ-opioid receptor; read-out: Ki (nM) ± SEM, δ): 5850 ± 560 nM; Ki (κ-opioid receptor; Table 1b, N-oxides): 227 ± 48.1 nM
